Series [1] deals with human HT-29 colorectal cancer cells. The experiment in a line: Time-course uptake by flow cytometry (cell-associated fluorescence). The following applies: 5 μM, 37° C., HT-29 cells, FIG. 4B. The class given is cell-based. On the procedure: FIG. 4 is a series of charts illustrating higher and sustained uptake of KBC-201 (FIG. 4A). At the same concentration (5 μM), KBC-201 generates about half the fluorescence compared to free curcumin (Ex.: 488 nm, Em.: 530 nm) (FIG. 4B). Time-course uptake of KBC-201 (full line) and free curcumin (dotted line) in human HT-29 colorectal cancer cells. HT-29 cells were incubated at 37° C. with 5 μM of KBC-201 or curcumin at various times, trypsinized, washed, and cell-associated fluorescence uptake was quantified using a BD Accuri™ C6 flow cytometer.
(§1) The uptake of Curcumin conjugate or free Curcumin was measured as a function of time in human HT-29 colon cancer cells (FIG. 4). […] Indeed, the Curcumin conjugate (KBC-201) is less fluorescent by about 2-3 folds when compared to free Curcumin. […] The uptake of both KBC-201 and free Curcumin was next measured in the presence of Sortilin ligands (FIG. 5B). […] Taken together, data of the pharmacological inhibition using Sortilin ligands and the silencing of Sortlin expression confirm that the Curcumin conjugate is internalized via a Sortilin-dependent mechanism.

The target of series [2] is T1, Sortilin receptor (Homo sapiens, UniProt Q99523).
T1 construct: Sortilin-deficient (siSortilin) HT-29 colorectal cancer cells; endogenous in cells; host or cells: HT-29 human colorectal cancer cells
T1 sequence (Q99523 78-831): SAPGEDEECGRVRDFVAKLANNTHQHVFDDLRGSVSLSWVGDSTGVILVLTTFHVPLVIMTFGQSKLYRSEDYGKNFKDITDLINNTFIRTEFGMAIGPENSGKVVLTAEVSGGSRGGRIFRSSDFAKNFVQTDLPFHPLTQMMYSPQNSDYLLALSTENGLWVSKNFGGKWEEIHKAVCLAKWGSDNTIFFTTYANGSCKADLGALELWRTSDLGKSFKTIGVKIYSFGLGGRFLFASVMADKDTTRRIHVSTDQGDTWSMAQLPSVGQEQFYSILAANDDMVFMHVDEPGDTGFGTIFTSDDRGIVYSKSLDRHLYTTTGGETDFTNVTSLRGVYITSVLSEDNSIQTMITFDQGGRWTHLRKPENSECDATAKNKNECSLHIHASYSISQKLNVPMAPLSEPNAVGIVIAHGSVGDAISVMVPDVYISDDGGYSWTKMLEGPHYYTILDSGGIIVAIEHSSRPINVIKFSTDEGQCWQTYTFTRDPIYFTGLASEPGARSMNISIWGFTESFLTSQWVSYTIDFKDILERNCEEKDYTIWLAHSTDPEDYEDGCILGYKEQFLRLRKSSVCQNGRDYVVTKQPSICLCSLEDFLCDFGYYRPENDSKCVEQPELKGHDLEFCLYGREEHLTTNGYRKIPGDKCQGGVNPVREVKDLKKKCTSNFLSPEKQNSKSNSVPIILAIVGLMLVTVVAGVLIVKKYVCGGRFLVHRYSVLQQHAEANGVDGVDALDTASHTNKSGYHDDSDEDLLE
Nature of the series: Sortilin-mediated uptake in HT-29 cells (siRNA silencing and competition with Sortilin ligands). It is filed as cell-based. To be noted: 5 μM. On the procedure:
FIG. 5 is a series of charts showing Sortilin-mediated uptake of KBC-201 in human colorectal cancer cells, FIG. 5A) Uptake of 5 μM of KBC-201 or free curcumin were performed at 37° C. in control (siScrambled) or Sortilin-deficient (siSortilin) HT-29 colorectal cancer cells. After a 2 h incubation, cells were trypsinized to remove non-internalized products, washed 3-times with ice-cold PBS and cell-associated fluorescence was quantified using a BD Accuri™ C6 flow cytometer. […] Cell-associated fluorescence uptake was quantified using a BD Accuri™ C6 flow cytometer.
as §1

The test system of series [3] is TNF-α-induced COX-2 expression in human HT-29 colon cancer cells. The following applies: 2 h pre-treatment, 10 ng/mL TNF-α 24 h, HT-29, FIG. 6; compared to free Curcumin. The protocol: Cells were pre-treated for 2 h with indicated compounds in serum-free medium before the addition of 10 ng/mL TNF-α for 24 h. Cells were lysed and the levels protein expression of COX-2 were monitored by immunoblotting. […] For each sample, the COX-2 level was corrected for GAPDH (a loading control) and normalized to those seen in TNF-α control (value=100%).
Cells were pre-treated for 2 h with indicated compounds in serum-free medium before the addition of 10 ng/mL TNF-α for 24 h. Cells were lysed and the protein expression levels of COX-2 were monitored by immunoblotting. […] For each sample, the COX-2 level was corrected for GAPDH (a loading control) and normalized to those seen in TNF-α control (value=100%).

Series [4] has as its system TNF-α-induced IκB phosphorylation in human HT-29 colon cancer cells. Nature of the series: Inhibition of TNF-α-induced IκB phosphorylation in HT-29 cells. It is filed as cell-based. To be noted: 24 h pre-treatment, 100 ng/mL TNF-α 5 min, HT-29, FIGS. 8 and 17; compared to Curcumin. The text has this:
FIG. 8A) Immunodetection of IκB phosphorylation by TNF-α is shown.
One of the inflammatory pathways induced by TNF-α leads to the phosphorylation of IkB (FIG. 1), a key protein in inflammation. As expected, the addition of TNF-α to human HT-29 colon cancer cells triggered the phosphorylation of IkB (pIkB) (FIG. 8).
One of the inflammatory pathways induced by TNF-α leads to the phosphorylation IkB (see FIG. 1), a key protein in inflammation. It was observed that the addition of TNF-α to human HT-29 colon cancer cells triggered the phosphorylation of IkB (pIkB) (FIGS. 17A and 17B).

The subject of series [5] is TNF-α-induced NFκB phosphorylation in human MDA-MB231 breast cancer cells. The experiment in a line: Inhibition of TNF-α-induced NFκB phosphorylation in MDA-MB231 cells. The class given is cell-based. To be noted: 24 h pre-treatment, 100 ng/mL TNF-α 5 min, MDA-MB231, FIGS. 9 and 18. From the text: FIG. 9A) Immunodetection of phosphorylated NFκB by TNF-α is shown.
(§2) FIGS. 9 and 10 are other examples of the Curcumin conjugate (KBC-201)'s effect on the TNF-α-induced signaling pathways in two other cancer cell models.
Results presented in FIGS. 18A and 18B show now that the peptide alone (KBP-201) can reduce the TNF-α-induced NFκB phosphorylation by about 30%.
In FIG. 18A, immunodetection of NFκB phosphorylation by TNF-α is shown.

In series [6] the test system is TNF-α-induced IκB phosphorylation in human SKOV3 ovarian cancer cells. The experiment in a line: Inhibition of TNF-α-induced IκB phosphorylation in SKOV3 cells. The following applies: 24 h pre-treatment, 100 ng/mL TNF-α 5 min, SKOV3, FIG. 10. It is filed as cell-based.
Description: FIG. 10A) Immunodetection of IκB phosphorylation by TNF-α is shown.
as §2

Series [7] can be described thus: Stability at room temperature followed by absorbance over time. To be noted: FIG. 11. From the text: FIG. 11 is a graph showing absorbance of Curcumin conjugates and free Curcumin.

Entries after “also recorded” stand apart in the source; their conditions may differ.

As for “Acetyl-YK(curcumin)SLRRK(curcumin)APRWDAPLRDPALRQLL (YKSLRRKAPRWDAPLRDPALRQLL) [KBC-201]”, the “Uptake over time (cell-associated fluorescence)” value in series [1] was “higher and sustained uptake over time”. In addition, in series [2] (2 h, 37° C., siSortilin vs siScrambled HT-29 cells, FIG. 5A), the “Uptake when Sortilin expression is reduced by siRNA” value is “strongly inhibited; also recorded: reduces KBC-201 uptake”. The “Uptake in the presence of Sortilin ligands” value in series [2] (excess free peptide (50 μM), neurotensin (10 μM) or progranulin (1 nM), HT-29 cells, FIG. 5B) is recorded as “inhibited the uptake; also recorded: inhibit the uptake of KBC-201”. In addition, the “Inhibition of TNFα-induced COX-2 expression” value in series [3] is given as “stronger inhibition”. The “Inhibition of TNF-α-induced IkB phosphorylation” value in series [4] was “stronger inhibition”. The “Antagonism of TNF-α-induced phosphorylation of pro-inflammatory proteins (NFκB)” value in series [5] was “more potent than free Curcumin”. In addition, the “Antagonism of TNF-α-induced phosphorylation of pro-inflammatory proteins (IκB)” value in series [6] was “more potent than free Curcumin”. The “Stability (absorbance over time)” value in series [7] was “more stable”.

Values taken from patent US20200157151A1, “PEPTIDE COMPOUNDS, CONJUGATE COMPOUNDS AND USES THEREOF FOR TREATING INFLAMMATORY DISEASES” (TRANSFERT PLUS, S.E.C., priority 2017, published 2020).
